We go through 3 compounds from publication PMC9433906, “Evaluation of the biotechnological potential of peptide Cupiennin 1a and analogs” (Frontiers in Microbiology, 2022).

For one data set, the system named is S. aureus (ATCC 25923). Format: cell-based, Staphylococcus aureus. The settings on record: S. aureus (ATCC25923); 5×10^5 CFU.ml^−1, Mueller-Hinton Broth, 37°C, 24 h, OD 595 nm, biological triplicates. How it is done: (§1) Susceptibility tests were performed using clinical isolates of Klebsiella pneumoniae carbapenemase (KPC 1410503) and methicillin-resistant S. aureus (MRSA 3730592). Tests were also performed with ATCC (American Type Culture Collection) isolates of K. pneumoniae (ATCC 13883) and S. aureus (ATCC 25923).
(§2) Two multidrug-resistant clinical isolates and two ATCC isolates were chosen to perform microbial susceptibility testing as models for studies with bacteria susceptible to antimicrobials found in the Gram-Positive and Gram-Negative groups of bacteria.
(§3) The broth microdilution method was performed according to the Clinical and Laboratory Standards Institute (CLSI) M07-A10 protocol to determine the Minimum Inhibitory Concentration (MIC; [Clinical Laboratory Standards Institute, 2015]). The assay was performed on 96-well microplates (TPP, United States), containing 5×10^5 CFU.ml^−1 of each tested bacterium per well and different peptide micromolar concentrations (Table 1) in a final volume of 100 μl of Mueller-Hinton Broth (MH). Negative control was represented by bacteria incubated in MH medium, while positive control was represented by culture incubated in MH medium with Amikacin. Plates were kept under agitation at 37°C in a BioTek spectrophotometer (PowerWaveTM HT Microplate Reader) with optical density (OD) readings at 595 nm every 30 min for 24 h. Inhibition results were analyzed using GraphPad Prism 8 software by comparing the OD from negative control wells (100%) to those containing peptides. All tests were performed in biological triplicates.

Data set [1] relates to methicillin-resistant S. aureus (MRSA 3730592). In kind it is cell-based, Staphylococcus aureus. The settings on record: Methicillin-Resistant S. aureus—MRSA clinical isolate 3730592; 5×10^5 CFU.ml^−1, Mueller-Hinton Broth, 37°C, 24 h, OD 595 nm, biological triplicates. On the procedure:
as §1, §2, §3

For data set [2], the system named is K. pneumoniae (ATCC 13883). In kind it is cell-based, Klebsiella pneumoniae. The settings on record: K. pneumoniae (ATCC13883); 5×10^5 CFU.ml^−1, Mueller-Hinton Broth, 37°C, 24 h, OD 595 nm, biological triplicates. On the procedure:
as §1, §2, §3

Data set [3] concerns C. parapsilosis (ATCC22019). As to the kind of experiment: Broth microdilution MIC (CLSI M27-A3 with modifications). Format: cell-based, Candida parapsilosis. To be noted: 2.5 × 10^3 CFU.ml^−1, Sabouraud medium, 24 h at 30°C, absorbance 595 nm. How it is done: The broth microdilution method was performed according to the Clinical and Laboratory Standards Institute Guideline M27-A3 with modifications to determine the Minimum Inhibitory Concentration (MIC; [Clinical Laboratory Standards Institute, 2008]).
Initially, the fungus C. parapsilosis (ATCC22019) was grown in a Petri dish containing Sabouraud Dextrose Agar medium (Dextrose 40 g/L; Peptic digestion of animal tissue 5.0 g.L^−1; and Agar 15 g.L^−1) for 48 h. Subsequently, a pre-inoculum was performed from a yeast colony that was placed in 10 ml of liquid Sabouraud medium and incubated for 16 h at 28°C, with a constant rotation of 200 rpm. After the incubation period, 2.5 × 10^3 CFU.ml^−1 of fungus per well was incubated with different peptide micromolar concentrations (Table 1) to assess the MIC for each peptide.
Fungal cells incubated with Sabouraud medium were used as negative control, while positive control was represented by fungal cells incubated in Sabouraud medium and amphotericin B (10 μM). Subsequently, plates were incubated for 24 h at 30°C. After this period, the absorbance was read (595 nm) in a BioTek spectrophotometer (PowerWaveTM HT Microplate Reader), and data of antifungal activity with percentage of inhibition of peptides were plotted in GraphPad Prism 8 Software.

The test system of another data set is RAW 264.7 cells. As to the kind of experiment: MTT cytotoxicity test against RAW 264.7. Format: cell-based, mice. The settings on record: 24 h. How it is done:
The cell line RAW 264.7 was obtained from the Rio de Janeiro Cell Bank (CR108). These cells are macrophages derived from induced tumors in male BALB/c mice infected with Abelson’s murine leukemia virus ([Raschke et al., 1978]). RAW264.7 cells were grown in DMEM medium (Dulbecco’s Modified Eagle’s medium, composed of CaCl2 (anhydrous) 200 mg.ml^−1, Fe(NO3).9H2O 0.1 mg.ml^−1, KCL 400 mg.ml^−1, MgSO4 (anhydrous) 97.67 mg.ml^−1, NaCL 6.400 mg.ml^−1, NaH2PO4.H2O 125 mg.ml^−1) supplemented with 10% (v/v) of bovine fetal serum, 0.5% (v/v) of DMEM amino acid solution, 0.05% (w/v) gentamicin, 0.5% (w/v) of L-glutamine, and 0.5% (w/v) of penicillin/streptomycin (1,000 U.ml^−1) in an incubator containing 5% CO2, at 37°C, and 95% humidity ([Raschke et al., 1978]; [Nguyen et al., 2017]).
RAW 264.7 cells were seeded in 96-well plates, at a concentration of 10^4 cells/well, and incubated for 24 h. Each peptide was subsequently added at different micromolar concentrations (Table 1). Positive control was performed by cells in culture medium and negative control, as cell culture in lysis solution (10 mM Tris, 1 mM EDTA, and 0.1% Triton X-100, pH 7.4).
Cell viability analyses were performed in technical and biological replicates, and readings were obtained after 24 h of contact with peptides. At the end of the incubation period, MTT (Sigma-Aldrich, United States) was used to assess the ability of living cells to reduce salt 3-[4,5-dimethylthiazole-2-yl]-2,5-diphenyltetrazolium bromide for formazan production. Plates were read at 570 ηm ([Mosmann, 1983]) and results were expressed in the percentage of living cells. The results were analyzed using GraphPad Prism 8 software where a One-Way ANOVA statistical test was followed by Bonferroni’s multiple comparisons test.
(In general: Formazan colour is commonly taken as a measure of viable cells.)

Data set [4] relates to Klebsiella pneumoniae carbapenemase (KPC 1410503). Format: cell-based. To be noted: K. pneumoniae carbapenemase—KPC clinical isolate 1410503; 5×10^5 CFU.ml^−1, Mueller-Hinton Broth, 37°C, 24 h, OD 595 nm, biological triplicates; NE = MIC value not found. On the procedure:
as §1, §2, §3

For data set [5], the system named is Spodoptera frugiperda (SF21) cells. As to the kind of experiment: In vitro test against insect cells (MTT). In kind it is cell-based. To be noted: lowest concentration tested (1 μM), 24 h. How it is done:
To evaluate the ability of the peptides to cause lysis and morphological changes in insect cells ([Dutra, 2019]; Patent: BR 102022 006138 6) as a first screening of the insecticidal activity of the peptides, in this work, the Spodoptera IPLB-SF-21AE _LVI-Cenargen cell line ([Vaughn et al., 1977]) was used and different concentrations of the peptides were added to the culture medium.
Cells were maintained at 27°C in TNMFH medium (Grace’s insect medium supplemented with lactalbumin hydrolyzate and yeastolate), supplemented with 10% (v/v) fetal bovine serum (Sigma-Aldrich; [Castro et al., 2006]).
Cell cultivation was carried out in 10 ml culture bottles, model K11-1050 25cm^2, with 5 ml of culture medium per bottle. For the assays, the SF21 cells were grown in TNMFH medium, added 10% (v/v) of bovine fetal serum, and distributed in plates of 96 wells at the concentration of 2×10^4 cells per well, after counting was performed in the Neubauer chamber. Cell suspension was distributed in a volume of 100 μl per well. Peptides were diluted in TNMFH medium and 100 μl of medium with peptide was added, obtaining concentrations of 10, 5, and 1 μM, reaching the volume of 200 μl at the final concentrations of reaction per well. Cells were placed in incubation at 27°C, for 24 h.
After 24 h, the cells were analyzed for their modifications, morphological alterations, turbidity of the medium, formation of clumps, and/or lysis in the presence of peptides, by observation under optical microscopy (Nikon Eclipse TS100) with 20× and 40× magnification. Characteristics that could represent cell death or cell dysfunction caused by the peptides were observed compared to control cells. Cells were evaluated by cell viability using the MTT test 3-[4,5-dimethylthiazole-2-yl]-2,5-diphenyltetrazolium bromide 0.5 mg.ml^−1 (Sigma-Aldrich). To perform the test, the cell culture medium was discarded, and we added 100 μl of new medium. Ten μl of MTT was added to each well and incubated for 4 h, with the plates protected from light. After 4 h, we added 100 μl of DMSO to each well to dissolve the formazan crystals, and the reading in the microplate reader ([Riss et al., 2016]) was then performed. The results were analyzed using GraphPad Prism 8 software, where a One-Way ANOVA statistical test was followed by Bonferroni’s multiple comparisons test.

The structures appear in SMILES notation. ≈ marks a conversion by molar mass, not a printed value. Where a SMILES comes first, the peptide text is derived from it.

As to `CC(C)C[C@H](NC(=O)[C@H](C)NC(=O)CNC(=O)[C@H](Cc1ccccc1)NC(=O)CN)C(=O)N[C@@H](Cc1ccccc1)C(=O)N[C@@H](CCCCN)C(=O)N[C@@H](Cc1ccccc1)C(=O)N[C@@H](CC(C)C)C(=O)N[C@@H](C)C(=O)N[C@@H](CCCCN)C(=O)N[C@@H](CCCCN)C(=O)N[C@H](C(=O)N[C@@H](C)C(=O)N[C@@H](CCCCN)C(=O)N[C@H](C(=O)N[C@H](C(=O)N[C@@H](C)C(=O)N[C@@H](CCCCN)C(N)=O)C(C)C)[C@@H](C)O)C(C)C` [Peptide R1a] (H-GFGALFKFLAKKVAKTVAK-NH2), the “Minimum inhibitory concentration (MIC)” value with S. aureus (ATCC 25923) was 15.81 µM (≈ 32 µg/mL); in data set [1] it was 15.81 µM (≈ 32 µg/mL); in data set [2], 31.63 µM (≈ 64 µg/mL); in data set [3] it was 15.81 µM (≈ 32 µg/mL). Moreover, the “viable cells (RAW264.7) in the MIC found for MRSA, S. aureus ATCC25923 and C. parapsilosis ATCC22019” value in the data set on RAW 264.7 cells (at the MIC of R1a for these strains (15.81 μM in Table 3)) is reported as 63%. Moreover, the “toxicity on RAW264.7 macrophages in the concentration range of 33.77 μM (in words)” value in the data set on RAW 264.7 cells (concentration range of 33.77 μM) is “high toxicity”.

As to `CC(C)C[C@H](NC(=O)[C@H](C)NC(=O)CNC(=O)[C@H](Cc1ccccc1)NC(=O)CN)C(=O)N[C@@H](Cc1ccccc1)C(=O)N[C@@H](CCCCN)C(=O)N[C@@H](Cc1ccccc1)C(=O)N[C@@H](CC(C)C)C(=O)N[C@@H](C)C(=O)N[C@@H](CCCCN)C(=O)N[C@@H](CCCCN)C(=O)N[C@H](C(=O)N[C@@H](C)C(=O)N[C@@H](CCCCN)C(=O)N[C@H](C(=O)N[C@H](C(=O)N[C@@H](C)C(N)=O)C(C)C)[C@@H](C)O)C(C)C` [Peptide R1b] (H-GFGALFKFLAKKVAKTVA-NH2), the “Minimum inhibitory concentration (MIC)” value in data set [4] stood at 67.54 µM (≈ 128 µg/mL); with S. aureus (ATCC 25923), 33.77 µM (≈ 64 µg/mL); in data set [1], 33.77 µM (≈ 64 µg/mL); in data set [2], 33.77 µM (≈ 64 µg/mL); in data set [3] it was 16.88 µM (≈ 32 µg/mL). The “viable cells (RAW264.7)” value with RAW 264.7 cells (33.77 μM) was found to be 58%. For the same compound, in the data set on RAW 264.7 cells (R1b: MIC found for KPC1410503, R3b: MIC at high concentrations against all tested microorganisms), the “toxicity to RAW264.7 cells at the MIC concentration (in words)” value is recorded as “high toxicity”.

On to `CC(C)C[C@H](NC(=O)[C@H](C)NC(=O)CNC(=O)[C@H](Cc1ccccc1)NC(=O)CN)C(=O)N[C@@H](Cc1ccccc1)C(=O)N[C@@H](CCCCN)C(=O)N[C@@H](Cc1ccccc1)C(=O)N[C@@H](CC(C)C)C(=O)N[C@@H](C)C(=O)N[C@@H](CCCCN)C(=O)N[C@@H](CCCCN)C(=O)N[C@H](C(=O)N[C@@H](C)C(=O)N[C@@H](CCCCN)C(=O)N[C@@H](C)C(=O)N[C@H](C(=O)N[C@@H](C)C(N)=O)C(C)C)C(C)C` [Peptide R2b] (H-GFGALFKFLAKKVAKAVA-NH2), for which the “Minimum inhibitory concentration (MIC)” value in data set [4] was found to be 34.31 µM (≈ 64 µg/mL); with S. aureus (ATCC 25923), 17.15 µM (≈ 32 µg/mL); in data set [1] it was 17.15 µM (≈ 32 µg/mL); in data set [2] it was 17.15 µM (≈ 32 µg/mL); in data set [3], 34.31 µM (≈ 64 µg/mL). Besides, the “cell viability (RAW264.7) in the MIC found for MRSA3730592, S. aureus ATCC25923, K. pneumoniae ATCC13883” value with RAW 264.7 cells (at the MIC of R2b for these strains (17.15 μM in Table 3)) is “above 50%”. For the same compound, the “toxicity against RAW264.7 cells (in words)” value in the data set with RAW 264.7 cells (tested concentrations of Table 1 (128–16 μg.ml^−1)) is reported as “high toxicity”. Further, the “cell viability (SF21)” value in data set [5] is listed as “below 50%”.
